For one assay, the target named is T1, HIV-1 p7NC protein (Human immunodeficiency virus type 1 group M subtype B, UniProt P04591).
T1 construct: recombinant HIV-1 p7NC protein
Briefly: Trp37 zinc finger fluorescence assay (zinc ejection from p7NC). In kind it is biochemical. The settings on record: for p7NC Trp37 Assay (RFU): 25 μM compound; for loss of Trp37 fluorescence of p7NC: 25 μM.

Assay [1] has as its system attachment of HIV-1 to fresh human PBLs. Briefly: virus attachment assay, HIV-1RF to PBLs (p24-based). In kind it is cell-based. As for the experimental part: Binding of HIV-1RF to PBLs was measured by a p24-based assay (Rice, et al., Proc. Nat'l. Academy of Science USA 90: 9721-9724, (1993)). Briefly, 5×10^5 PBLs were incubated with a concentrated stock of virus for 30 min. at 37° C. in the absence or presence of various concentrations of 624151, the unbound virus was washed away, and the cell-associated virus was solubilized in 1% Triton X-100, 1% BSA and analyzed by the p24 antigen capture assay as previously described. The binding of gp120to CD4 was analyzed using an antigen capture ELISA. All steps of the assay were carried out according to the manufacturer's protocols.
^.dagger. Attachment of HIV1 to fresh human PBLs, binding of gp120 to […]

The next assay concerns HIV-1 6R(AZT^R). Briefly: XTT cytopathicity assay, AZT-resistant 6R. In kind it is cell-based. Particulars: MT-4, 6R(AZT^R). As for the experimental part:
Initial anti-HIV screening was performed with CEM-SS cells and HIV-1RFusing the XTT cytoprotection assay as previously described (Weislow et al., J. National Cancer Inst. 81: 577-586, (1989)). HIV-1 isolates included common laboratory stains (RF, IIIB and MN), as well as a panel of HIV-1 clinical isolates (Cushman et al., J. Med. Chem. 37: 3040-3050, (1994)). The pyridone-resistant HIV-1A17 isolate (Nunberg et al., J. Virol., 65: 4887-4892 (1991)) was obtained from Emilio Emini at Merck Sharpe and Dohme Laboratories. Phytohemagglutinin-stimulated human peripheral blood lymphocytes (PBLs) and fresh monocyte-macrophage (Mono/MF) cultures were prepared and utilized in antiviral assays as previously described (Rice et al., Proc. Nat'l. Academy Science, USA 90: 9721-9724, (1993)); (Cushman et al., J. Med. Chem. 37: 3040-3050, (1994)). EC50 values for these cultures indicate the drug concentration that provided a 50% reduction in viral p24 production. […] The compounds can be synthesized according to the teachings of Singh et al., Sulfur Letters 8: 107-114, (1988). The 4,5-cis-dihydroxy(1,1-dioxy-1,2,-dithiohexane) compound (NSC 624151) has been abbreviated as 624151 for convenience. […]

The subject of another assay is HIV-1IIIB. Briefly: XTT cytopathicity assay, HIV-1IIIB. In kind it is cell-based. As for the experimental part: Initial anti-HIV screening was performed with CEM-SS cells and HIV-1RFusing the XTT cytoprotection assay as previously described (Weislow et al., J. National Cancer Inst. 81: 577-586, (1989)). HIV-1 isolates included common laboratory stains (RF, IIIB and MN), as well as a panel of HIV-1 clinical isolates (Cushman et al., J. Med. Chem. 37: 3040-3050, (1994)). The pyridone-resistant HIV-1A17 isolate (Nunberg et al., J. Virol., 65: 4887-4892 (1991)) was obtained from Emilio Emini at Merck Sharpe and Dohme Laboratories. Phytohemagglutinin-stimulated human peripheral blood lymphocytes (PBLs) and fresh monocyte-macrophage (Mono/MF) cultures were prepared and utilized in antiviral assays as previously described (Rice et al., Proc. Nat'l. Academy Science, USA 90: 9721-9724, (1993)); (Cushman et al., J. Med. Chem. 37: 3040-3050, (1994)). EC50 values for these cultures indicate the drug concentration that provided a 50% reduction in viral p24 production. […] The compounds can be synthesized according to the teachings of Singh et al., Sulfur Letters 8: 107-114, (1988). The 4,5-cis-dihydroxy(1,1-dioxy-1,2,-dithiohexane) compound (NSC 624151) has been abbreviated as 624151 for convenience. MT-2, MT-4, U1, HeLa-CD4-LTR-β-gal and 174xCEM cells were obtained from the AIDS Research and Reference Program (National Institute of Allergy and Infectious Disease, National Institutes of Health, Bethesda, Md. USA), as were the HIV-2MS and the AZT-resistant HIV-1G910-6 isolates.
^a Anti-HIV studies utilizing lymphocytederived cell lines were
performed using the XTT cytopathicity assay, while antiviral assays
Background: Tetrazolium assays rely on reduction of a dye to a coloured formazan, in cell work by metabolically active cells.

pEC50: −log10 of the molar value.

On to `O=S1(=O)C[C@H](O)[C@H](O)CS1` (relative stereo) [NSC 624151, cis-1,1-dioxo[1,2]dithiane-4,5-diol], for which the “p7NC Trp37 Assay (RFU)” value is given as 295 RFU on HIV-1 p7NC protein (0 min), 136 RFU on HIV-1 p7NC protein (3 min), 75 RFU at HIV-1 p7NC protein (10 min) and 42 RFU on HIV-1 p7NC protein (30 min). For the same compound, the “loss of Trp37 fluorescence of p7NC” value on HIV-1 p7NC protein (FIG. 1(A), in words) is given as “time dependent loss of fluorescence”; on HIV-1 p7NC protein (FIG. 1(A), in words, listed as 624151), “time-dependent loss of fluorescence”. The zinc ejection result at HIV-1 p7NC protein (FIG. 1(A), in words) is reported as “promotes zinc ejection”. In addition, on HIV-1 p7NC protein (in words), the “reactivity with the zinc fingers” value is reported as “reacted aggressively with the p7NC protein zinc fingers”. In addition, in assay [1] (Table 6), the Attachment result is on record as “NI100μμ”. Further, in assay [1] (in words), the “inhibition of attachment of HIV-1 virions to target cells” value is recorded as “did not inhibit”. The pEC50 – broadly, the negative decadic logarithm of the EC50, by convention in mol/L – with HIV-1 6R(AZT^R) is 5.14; in the assay on HIV-1IIIB (Human immunodeficiency virus 1, AA5(B, EBV+), HIV-1IIIB) it was 4.59; in the assay with HIV-1IIIB (Human immunodeficiency virus 1, CEM-SS, CEM-SS (T), HIV-1IIIB, cell type panel) it was 5.21; with HIV-1IIIB (Human immunodeficiency virus 1, H9(T), HIV-1IIIB), 4.89; in the assay with HIV-1IIIB (Human immunodeficiency virus 1, MT-2(T), HIV-1IIIB), 4.73; in the assay with HIV-1IIIB (Human immunodeficiency virus 1, CEM-SS, IIIB, Laboratory HIV-1) it was 4.68. Also, in the assay with HIV-1IIIB (Human immunodeficiency virus 1, U-937, U937(M), HIV-1IIIB), a half-maximal effect (EC50) was put at 3.2e-06 M. Further, the “inhibition of infection by HIV-1IIIB in all cellular phenotypes tested” value in the assay on HIV-1IIIB (in words) is “inhibited by 624151 in all cellular phenotypes tested”.

These data come from patent US6046228A, “Anti-viral pharmaceutical compositions containing saturated 1,2-dithiaheterocyclic compounds and uses thereof” (priority 1999, dated 2000).
